This is an account of results in patent US20250152605A1, “METHOD AND DRUG FOR TREATING NEURONAL CEROID LIPOFUSCINOSIS” (priority 2021, published 2025).

The structures appear in SMILES notation.

Holding throughout (assay type): cell-based
The subject of experiment [1] is mice's neurons. As to the kind of experiment: qRT-PCR of autophagy-related and lysosomal genes in mouse neurons. Conditions: 6 hours. As to the method:
(§1) The cells in the cell-culture dish were collected, extracted using AxyPrep Total RNA Mini Prep Kit or Qiagen AxyPrep Total RNA Mini Prep Kit, and the extracted RNA concentration is measured using Nanodrop; the extracted mRNA was reverse transcribed into cDNA by Transgen's EasyScript® One-Step gDNA Removal and cDNA Synthesis SuperMix and the primers used for reverse transcription were Oligo dT primers; the completion of reverse transcription followed by qRT-PCR reaction through PerfectStart™ Green qPCR SuperMix to detect the expression of the target gene; the qRT-PCR reaction was performed on the Bio-Rad CFX96 Real-Time PCR system; see Table 2 and Table 3 for the 20 μL qRT-PCR reaction system and reaction procedures; data analysis was performed in Prism 7 software using the 2^−ΔΔCt process with GAPDH as internal reference for relative quantification of the expression of the target gene.
After treating primary (a) neural stem cells and (b) neurons of Cln3 KO) mice for 6 hours, the mRNA was extracted from the cells, reverse-transcribed into cDNA, and transcription levels of autophagy- and lysosome-related genes were detected using qRT-PCR (n=3).
It was speculated from this that the known target FXR of Compound G was expressed at low or no levels in neural lineage cells. […]
(Real-time PCR tracks product formation cycle by cycle.)

Experiment [2] relates to KEAP1-knockdown CLN3^Δex7/8 human neurons. The experiment in a line: Lysotracker staining of KEAP1-knockdown CLN3^Δex7/8 human neurons. Conditions: added to KEAP1-knockdown CLN3^Δex7/8 human neurons. As to the method:
shRNA knockdown experiments of genes such as CLN3 and KEAP1 were conducted in induced neural stem cells and neurons, with specific steps as follows: the neural stem cells were planted into a desired cell culture plate to a cell density of about 50% or the neural stem cells were differentiated into human neurons in the cell culture plate according to experimental requirements; the shRNA lentiviral plasmids of CLN3 and KEAP1 genes and the control lentiviral plasmid expressing non-target sequences were selected from the MISSIOH human shRNA library of Sigma Aldrich, and the sequences were shown in Table 6; Lentiviruses was packaged in 10 cm cell culture plates and virus-containing supernatant was collected by filtration according to the method described above; the supernatant and lentivirus concentrate (40% PEG-8000 and 1.2M sodium chloride dissolved in dPBS solution, pH˜ 7.0) were mixed in a volume ratio of 1:3, and incubated overnight at 4° C. with slow rotation; centrifugation at 13000 g for 30 minutes at 4° C., and the supernatant was discarded, and the pellet was resuspended in 1 mL of fresh cell culture medium and added to the target cells; after 8 hours of infection, the virus was aspirated and fresh cell culture medium was added; 48 hours after infection, 1.5 μg/mL puromycin was added for selection for 72 hours, and the surviving cells were used for subsequent experiments. […]

In experiment [3] the test system is CLN3^Δex7/8 human neurons. As to the kind of experiment: Lysotracker staining of CLN3^Δex7/8 human neurons, flow cytometry. The procedure: In analyzing the mean fluorescence intensity of neural stem cells and neuronal staining or single cell establishment of NRK cells, flow cytometry was used: the cell medium was aspirated off, after wash with dPBS once, the digestive enzyme corresponding to the cell type was added to digest into single cells; the supernatant was removed by centrifugation, and the cells were resuspended with 1 mL of fresh medium; the cell suspension with filtered through 40 μm filter membrane and the single cell filtrate was collected; the single cell filtrate was transferred to a flow tube and analyzed or sorted using BD FACS Aria III; in the analysis, the fluorescence intensity of 1×10^4 cells for each sample was analyzed to obtain the mean fluorescence intensity (MFI); for sorting, cells were received in 96 well plates with medium, one cell per well to establish a cell line.
Studies above have shown that CLN3^Δex7/8 human neurons feature lysosomal acidity dysregulation. To investigate the effect of Compound G on lysosomal acidity in CLN3^Δex7/8 neurons, Lysotracker dye was used for staining and flow cytometry was used for analyzing the fluorescence intensity of Lysotracker dye in cells.
(A flow cytometer gives signals particle by particle.)

The test system of experiment [4] is NRF2 downstream genes. The experiment in a line: qRT-PCR of NRF2 downstream genes. Conditions: CLN3^Δex7/8 human neural stem cells, 6 hours. The procedure: as §1
Primers were further designed, verification of qRT-PCR was conducted on the above activated genes in the downstream of NRF2. After treating CLN3^Δex7/8 human neural stem cells with Compound G for 6 hours, the cells were collected and mRNA was extracted for detecting the expression level of the genes.

`C/C=C1\C(=O)C[C@H]2[C@@H]3CCC4=CC(=O)CC[C@]4(C)[C@H]3CC[C@]12C` [Compound G, (Z)-guggulsterone]: in experiment [1], the “transcription level of the autophagy-related genes or the lysosomal genes” value is “did not significantly increase”. The “Lysotracker average fluorescence intensity” value in experiment [2] is reported as “could not further increase”. The “Lysotracker fluorescence intensity in CLN3^Δex7/8 human neurons” value in experiment [3] is recorded as “increased significantly”. Besides, in experiment [4], the “expression level of most NRF2 downstream genes” value is on record as “significantly increase”.
